Measurements from US8524637B2, “Composition for controlling pests and method for controlling pests” (Sumitomo Chemical Company, Limited, priority 2008, dated 2013).

Tested on: Rhizoctonia solani
Assay: Cucumber seed treatment test against Rhizoctonia solani (Test Example 1)
Format: in vivo
Conditions: cucumber seeds, acetone solution, seven days after seeding
From the text: An emulsifiable concentrate was obtained by mixing clothianidin and metconazole.
In accordance with Seed Treatment Example 5, cucumber (Sagami Hanjiro) seeds were smeared with the emulsifiable concentrate using a rotary seed treating machine (seed dresser, manufactured by Hans-Ulrich Hege GmbH).
The obtained treated seeds were allowed to stand overnight and sown on the soil with which each plastic pot was filled and then covered with the soil mixed with Rhizoctonia solani cultured in a bran culture medium. While sprinkling, culture was conducted in a greenhouse. Seven days after seeding, the number of seeds not showing epicotyl emergence was checked and severity was calculated using Equation 1 shown below. Based on the severity, the control value was calculated using Equation 2.
For comparison, acetone solutions each having a predetermined concentration of clothianidin or metconazole were prepared by mixing each of clothianidin and metconazole with acetone, and the same test was carried out. Severity=(number of seeds not showing epicotyl emergence)×100/(total number of sown seeds) Equation 1 Control value=100×(A−B)/A Equation 2 • A: Severity of plants of the chemical non-treated district • B: Severity of plants of the chemical treated district

CN/C(=N\[N+](=O)[O-])NCc1cnc(Cl)s1 [Clothianidin, clothianidin]
Control value (clothianidin 200 g, metconazole 0 g per 100 kg of seeds): 4

CC1(C)CCC(Cc2ccc(Cl)cc2)C1(O)Cn1cncn1 (centres unmarked) [Metconazole, metconazole]
Control value (clothianidin 0 g, metconazole 1 g per 100 kg of seeds): 39
